In general, IC50 refers to the concentration needed to halve the response being measured.

Holding throughout (format): cell-based
The test system of one assay is GP2d cells. Kind of assay: Cellular proliferation assay in GP2d cells (CellTiterGlo luminescent cell viability assay). The following applies: 72 hours treatment, CellTiter-Glo. The protocol:
Example 32: Cellular Proliferation Assay in GP2d Cells
The inhibitory effect of test compounds on cellular proliferation was determined using CellTiterGlo® luminescent cell viability assay (Promega) following manufacturer's instruction.
GP2d cells (ECACC #95090715) were cultured in DMEM medium supplemented with 10% fetal bovine serum, 10 U/ml penicillin and 10 ug/ml streptomycin. Cells were plated in 96-well plates at a density of 2000 cells/well and allowed attach for […]. Then the cells were treated with various concentrations of test compounds for 72 hours. CellTiter-Glo® Reagent was added to wells and incubated for 10 minutes at room temperature. The plates were read on GloMax® 96 Microplate Luminometer or compatible microplate readers. The percentage of cellular viability was calculated as: […]
In general terms: Cellular ATP, detected with luciferase, serves as a proxy for viable cell number.

The next assay deals with p-ERK in AGS cells. The assay can be described thus: p-ERK assay in AGS cells (fixed cells, anti-p-ERK / β-Actin antibodies, IR imaging). The conditions noted are these: Homo sapiens, 3 h at 37° C., p-ERK detected by antibody with β-Actin, IR fluorescence. The protocol:
The expression of p-ERK was detected in this assay. At first, the AGS cells (40000 cells/well) were seeded in 96-well plate culture overnight and treated with KRAS-G12D compounds inhibitors at concentrations of 1, 0.33, 0.11, 0.03, 0.01, 0.004, 0.001, 0.0004, 0.0001 μM for 3 h at 37° C. Then, add an equal volume (100 μL) of 8% paraformaldehyde solution to fix and crosslink the cells to the microplate for 15 minutes. Add 100 μL of 1× permeabilization solution to wells for 30 min and add 100 μL of 1× blocking solution for 2 h. Wash with PBS 3 times after each reaction. At last, Incubation with primary antibody (Anti-mouse β-Actin and Anti-rabbit p-ERK) and secondary antibody (Goat anti-Mouse IgG H&L IRDye 800CW and Goat anti-Rabbit IgG H&L IRDye 680RW) for 2 h, As appropriate, image the microplate with an IR scanner or develop the HRP labeled microplate and read it with a spectrophotometer. The fluorescence signal was monitored using a microplate reader (Azure biosystems, Sapphire biomolecular imager) using excitation and emission wavelengths of 680 and 800 nm, respectively. Export data. The inhibitor dose-reponse curves were analyzed using normalized IC50 regression curve fitting with control based normalization.

For assay [1], the system named is phosphorylation of ERK1/2 in AGS cells with KRAS-G12D mutation. The assay can be described thus: Detection of phosphorylation of ERK1/2 in AGS cells (AlphaLISA SureFire Ultra p-ERK 1/2 (Thr202/Tyr204) assay). The conditions noted are these: Homo sapiens, 3 hours, AlphaLISA p-ERK 1/2 (Thr202/Tyr204). The protocol: Example 33: Detection of Phosphorylation of ERK1/2 in AGS Cells
The inhibitory effect of test compounds on phosphorylation of ERK1/2 were determined using the AlphaLISA® SureFire® Ultra™ p-ERK 1/2 (Thr202/Tyr204) assay following the manufacturer's instructions (ALSU-PERK-A500, PerkinElmer Inc.).
AGS cells (ATCC CRL-1739) with KRAS-G12D mutation were cultured in DMEM medium supplemented with 10% fetal bovine serum, 10 U/ml penicillin and 10 μg/ml streptomycin. Cells were plated in 96-well plates at a density of 4000 cells/well. After 16-18 hours incubation, various concentrations of compounds were added to cells with a final concentration of 0.2% DMSO. After 3 hours, the medium was removed, and the cells were lysed in 50 uL lysis buffer. 10 uL of lysate was transferred to a half area 96-well plate, 5 ul of acceptor mix was added to wells and incubated at room temperature for 1 hour, then 5 ul of donor mix was added to wells. After 1 hour incubation at room temperature, the plate was read on an Alpha Technology-compatible plate reader, using standard AlphaLISA settings. The assays were carried out in duplicates.
(Alpha assays give light when donor and acceptor beads are brought close together.)

Turning to `Oc1cc(-c2ncc3c(N4C[C@H]5CC[C@@H](C4)N5)nc(OCC4(CN5CCOCC5)CC4)nc3c2F)c2c3c(ccc2c1)CCC3` [Example 9, 9-(4-((1R,5S)-3,8-diazabicyclo[3.2.1]octan-3-yl)-8-fluoro-2-((1-(morpholinomethyl)cyclopropyl)methoxy)pyrido[4,3-d]pyrimidin-7-yl)-2,3-dihydro-1H-cyclopenta[a]naphthalen-7-ol], the IC50 in the assay with GP2d cells amounted to 175 nM; in the assay with p-ERK in AGS cells it was 31 nM.

As for `CN(C)CC1(COc2nc(N3C[C@H]4CC[C@@H](C3)N4)c3cnc(-c4cc(O)cc5ccc6c(c45)CCC6)c(F)c3n2)CC1` [Example 8, 9-(4-((1R,5S)-3,8-diazabicyclo[3.2.1]octan-3-yl)-2-((1-((dimethylamino)methyl)cyclopropyl)methoxy)-8-fluoropyrido[4,3-d]pyrimidin-7-yl)-2,3-dihydro-1H-cyclopenta[a]naphthalen-7-ol], the IC50 is 284 nM in the assay on GP2d cells and 41 nM with p-ERK in AGS cells.

As to `Oc1cc(-c2ncc3c(N4C[C@H]5CC[C@@H](C4)N5)nc(OC[C@@]45CCCN4C[C@H](F)C5)nc3c2F)c2c3c(ccc2c1)COC3` [Example 21, 9-(4-((1R,5S)-3,8-diazabicyclo[3.2.1]octan-3-yl)-8-fluoro-2-(((2R,7aS)-2-fluorotetrahydro-1H-pyrrolizin-7a(5H)-yl)methoxy)pyrido[4,3-d]pyrimidin-7-yl)-1,3-dihydronaphtho[1,2-c]furan-7-ol], the concentration for half-maximal inhibition (IC50) was 263 nM with GP2d cells and 52 nM in the assay with p-ERK in AGS cells.

On to `Oc1cc(-c2ncc3c(N4C[C@H]5CC[C@@H](C4)N5)nc(OC[C@@]45CCCN4C[C@H](F)C5)nc3c2F)c2c(ccc3ccsc32)c1` [Example 15, 9-(4-((1R,5S)-3,8-diazabicyclo[3.2.1]octan-3-yl)-8-fluoro-2-(((2R,7aS)-2-fluorotetrahydro-1H-pyrrolizin-7a(5H)-yl)methoxy)pyrido[4,3-d]pyrimidin-7-yl)naphtho[1,2-b]thiophen-7-ol], for which the IC50 came out at 541 nM with GP2d cells and 159 nM in the assay with p-ERK in AGS cells.

With `Oc1cc(-c2ncc3c(N4C[C@H]5CC[C@@H](C4)N5)nc(OC[C@@]45CCCN4C[C@H](F)C5)nc3c2F)c2c3c(ccc2c1)CCC3` [Example 2, 9-(4-((1R,5S)-3,8-diazabicyclo[3.2.1]octan-3-yl)-8-fluoro-2-(((2R,7aS)-2-fluorotetrahydro-1H-pyrrolizin-7a(5H)-yl)methoxy)pyrido[4,3-d]pyrimidin-7-yl)-2,3-dihydro-1H-cyclopenta[a]naphthalen-7-ol], the figures for the IC50 (in the assay on GP2d cells; in assay [1]; in the assay on p-ERK in AGS cells) were 130 nM, 78 nM and 11 nM, respectively.

Consider `Fc1c(-c2cccc3ccc4occc4c23)ncc2c(N3C[C@H]4CC[C@@H](C3)N4)nc(OC[C@@]34CCCN3C[C@H](F)C4)nc12` [Example 4, 4-((1R,5S)-3,8-diazabicyclo[3.2.1]octan-3-yl)-8-fluoro-2-(((2R,7aS)-2-fluorotetrahydro-1H-pyrrolizin-7a(5H)-yl)methoxy)-7-(naphtho[2,1-b]furan-9-yl)pyrido[4,3-d]pyrimidine], for which the values for the IC50 with GP2d cells and in the assay with p-ERK in AGS cells were 4750 nM and 4900 nM, respectively.

In the case of `Oc1cc(-c2ncc3c(N4C[C@H]5CC[C@@H](C4)N5)nc(OC[C@@]45CCCN4C[C@H](F)C5)nc3c2F)c2c3c(ccc2c1)CCCC3` [Example 16, 4-(4-((1R,5S)-3,8-diazabicyclo[3.2.1]octan-3-yl)-8-fluoro-2-(((2R,7aS)-2-fluorotetrahydro-1H-pyrrolizin-7a(5H)-yl)methoxy)pyrido[4,3-d]pyrimidin-7-yl)-5,6,7,8-tetrahydrophenanthren-2-ol], the IC50 in the assay on GP2d cells turned out to be 849 nM; in the assay on p-ERK in AGS cells, 5 nM.

Turning to `CC1CCc2ccc3cc(O)cc(-c4ncc5c(N6C[C@H]7CC[C@@H](C6)N7)nc(OC[C@@]67CCCN6C[C@H](F)C7)nc5c4F)c3c21` (stereo partly drawn) [Example 14, 9-(4-((1R,5S)-3,8-diazabicyclo[3.2.1]octan-3-yl)-8-fluoro-2-(((2R,7aS)-2-fluorotetrahydro-1H-pyrrolizin-7a(5H)-yl)methoxy)pyrido[4,3-d]pyrimidin-7-yl)-1-methyl-2,3-dihydro-1H-cyclopenta[a]naphthalen-7-ol], the IC50 with GP2d cells turned out to be 429 nM; in the assay with p-ERK in AGS cells, 85 nM.

Consider `C[C@@H](COc1nc(N2C[C@H]3CC[C@@H](C2)N3)c2cnc(-c3cc(O)cc4ccc5c(c34)CCC5)c(F)c2n1)CN1C2CCC1COC2` [Example 12, 9-(2-((2R)-3-(3-oxa-8-azabicyclo[3.2.1]octan-8-yl)-2-methylpropoxy)-4-((1R,5S)-3,8-diazabicyclo[3.2.1]octan-3-yl)-8-fluoropyrido[4,3-d]pyrimidin-7-yl)-2,3-dihydro-1H-cyclopenta[a]naphthalen-7-ol], for which the figures for the IC50 with GP2d cells and with p-ERK in AGS cells were 48.4 nM and 17 nM, respectively.

Take `Oc1cc(-c2ncc3c(N4C[C@H]5CC[C@@H](C4)N5)nc(OC[C@@]45CCCN4C[C@H](F)C5)nc3c2F)c2c(c1)c(Cl)c1n2CCC1` [Example 20, 5-(4-((1R,5S)-3,8-diazabicyclo[3.2.1]octan-3-yl)-8-fluoro-2-(((2R,7aS)-2-fluorotetrahydro-1H-pyrrolizin-7a(5H)-yl)methoxy)pyrido[4,3-d]pyrimidin-7-yl)-9-chloro-2,3-dihydro-1H-pyrrolo[1,2-a]indol-7-ol]: the IC50 in the assay with GP2d cells came to 2410 nM; in the assay on p-ERK in AGS cells it was 226 nM.

For `CC1(O)CCCN(c2nc(OCC34CCCN3C[C@H](F)C4)nc3c(F)c(-c4cc(O)cc5ccc6c(c45)CCC6)ncc23)C1` (stereo partly drawn) [Example 13, 1-(8-fluoro-2-(((2R)-2-fluorotetrahydro-1H-pyrrolizin-7a(5H)-yl)methoxy)-7-(7-hydroxy-2,3-dihydro-1H-cyclopenta[a]naphthalen-9-yl)pyrido[4,3-d]pyrimidin-4-yl)-3-methylpiperidin-3-ol], the IC50 with GP2d cells was found to be 10 nM; in the assay on p-ERK in AGS cells it was 22 nM.

Turning to `O=C1CCc2ccc3cc(O)cc(-c4ncc5c(N6C[C@H]7CC[C@@H](C6)N7)nc(OC[C@@]67CCCN6C[C@H](F)C7)nc5c4F)c3c21` [Example 17, 9-(4-((1R,5S)-3,8-diazabicyclo[3.2.1]octan-3-yl)-8-fluoro-2-(((2R,7aS)-2-fluorotetrahydro-1H-pyrrolizin-7a(5H)-yl)methoxy)pyrido[4,3-d]pyrimidin-7-yl)-7-hydroxy-2,3-dihydro-1H-cyclopenta[a]naphthalen-1-one], the IC50 turned out to be 16000 nM in the assay with GP2d cells and 272 nM with p-ERK in AGS cells.

Regarding `C[C@@H]1COCCN1CC1(COc2nc(N3C[C@H]4CC[C@@H](C3)N4)c3cnc(-c4cc(O)cc5ccc6c(c45)CCC6)c(F)c3n2)CC1` [Example 11, 9-(4-((1R,5S)-3,8-diazabicyclo[3.2.1]octan-3-yl)-8-fluoro-2-((1-(((R)-3-methylmorpholino)methyl)cyclopropyl)methoxy)pyrido[4,3-d]pyrimidin-7-yl)-2,3-dihydro-1H-cyclopenta[a]naphthalen-7-ol], the IC50 worked out at 169 nM in the assay with GP2d cells and 135 nM in the assay with p-ERK in AGS cells.

With `Oc1cc(-c2ncc3c(N4C[C@H]5CC[C@@H](C4)N5)nc(OC[C@@]45CCCN4C[C@H](F)C5)nc3c2F)c2c(ccc3ccoc32)c1` [Example 1, 9-(4-((1R,5S)-3,8-diazabicyclo[3.2.1]octan-3-yl)-8-fluoro-2-(((2R,7aS)-2-fluorotetrahydro-1H-pyrrolizin-7a(5H)-yl)methoxy)pyrido[4,3-d]pyrimidin-7-yl)naphtho[1,2-b]furan-7-ol], the IC50 with GP2d cells came out at 680 nM; in assay [1], 408 nM; in the assay on p-ERK in AGS cells it was 107 nM.

Values taken from patent US20250276982A1, “KRAS INHIBITORS” (ASCENTAGE PHARMA (SUZHOU) CO., LTD., priority 2021, published 2025).
